This is an account of results in patent US20230265104A1, “NOVEL HETEROCYCLIC COMPOUNDS” (PRISM BIOLAB CO., LTD., priority 2020, published 2023).

This experiment deals with PANC-1 (human pancreatic cancer-derived cell line). Nature of the experiment: MTS assay on Panc-1 (human pancreas carcinoma cell line). Conditions: 144 h; for inhibition at 0.15625 µM: read-out: Growth inhibition (%) 0.15625 μM; for inhibition at 0.3125 µM: read-out: Growth inhibition (%) 0.3125 μM; for inhibition at 1 µM: read-out: Growth inhibition (%) 1 μM. The experiment is classed as cell-based. The procedure, abridged: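 PANC-1 cells in D-MEM + 10% FBS at 37 °C, 5% CO2 exposed to 2-fold serial DMSO dilutions of compound for 6 days. Survival read by MTS (492 minus 630 nm, blank-corrected) relative to DMSO control as 100%; mean of 3 runs, 4-parameter logistic fit.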
Background: Tetrazolium assays rely on reduction of a dye to a coloured formazan, in cell work by metabolically active cells.

`CC(C)N1CCC(N2C[C@@H]3N(C(=O)/C=C/c4nc(C#CCCCCO)cs4)O[C@H](CC4CC4)C(=O)N3[C@@H](CC(C)(C)C)C2=O)CC1` [ID-99, (3R,6S,9aS)-3-(cyclopropylmethyl)-1-((E)-3-(4-(6-hydroxyhex-1-yn-1-yl)thiazol-2-yl)acryloyl)-8-(1-isopropylpiperidin-4-yl)-6-neopentyltetrahydropyrazino[2,1-c] [1,2,4]oxadiazine-4,7(3H,6H)-dione]: the inhibition at 0.15625 µM (PANC-1, MTS, 6 days) is 61.1%.
For `C#Cc1sc(/C=C/C(=O)N2O[C@H](CC(C)C)C(=O)N3[C@@H]2CN(C2CCN(C(C)C)CC2)C(=O)[C@@H]3CC(C)(C)C)nc1C#CCCCO` [ID-100, (3R,6S,9aS)-1-((E)-3-(5-ethynyl-4-(5-hydroxypent-1-yn-1-yl)thiazol-2-yl)acryloyl)-3-isobutyl-8-(1-isopropylpiperidin-4-yl)-6-neopentyltetrahydropyrazino[2,1-c][1,2,4]oxadiazine-4,7(3H,6H)-dione], where the note is “PANC-1, MTS, 6 days”, the inhibition at 0.15625 µM is 99.8%.
Same read-out and setting: the value for `CC(C)C[C@H]1ON(C(=O)/C=C/c2nc3cc(OCCCO)ccc3s2)[C@H]2CN(C3CCN(C(C)C)CC3)C(=O)[C@H](CC(C)(C)C)N2C1=O` [ID-101, (3R,6S,9aS)-1-((E)-3-(5-(3-hydroxypropoxy)benzo[d]thiazol-2-yl)acryloyl)-3-isobutyl-8-(1-isopropylpiperidin-4-yl)-6-neopentyltetrahydropyrazino[2,1-c][1,2,4]oxadiazine-4,7(3H,6H)-dione] was 65.6%; that for `CC(C)C[C@H]1ON(C(=O)/C=C/c2nc(C#CCCCO)cs2)[C@H]2CN(C3CCN(C4CC4)CC3)C(=O)[C@H](CC(C)(C)C)N2C1=O` [ID-102, (3R,6S,9aS)-8-(1-cyclopropylpiperidin-4-yl)-1-((E)-3-(4-(5-hydroxypent-1-yn-1-yl)thiazol-2-yl)acryloyl)-3-isobutyl-6-neopentyltetrahydropyrazino[2,1-c][1,2,4]oxadiazine-4,7(3H,6H)-dione] was 36.9%.
Take `C#Cc1sc(/C=C/C(=O)N2O[C@H](CC(C)C)C(=O)N3[C@@H]2CN(C2CCN(C)CC2)C(=O)[C@@H]3CC(C)(C)C)nc1C#CCCCO` [ID-103, (3R,6S,9aS)-1-((E)-3-(5-ethynyl-4-(5-hydroxypent-1-yn-1-yl)thiazol-2-yl)acryloyl)-3-isobutyl-8-(1-methylpiperidin-4-yl)-6-neopentyltetrahydropyrazino[2,1-c][1,2,4]oxadiazine-4,7 (3H, 6H)-dione]: the inhibition at 0.3125 µM (PANC-1, MTS, 6 days) amounted to 99.6%.
As to `CC(C)(C)C[C@H]1C(=O)N([C@@H]2CCN(CCCCO)C2)C[C@@H]2N(C(=O)/C=C/c3nc4ccccc4s3)O[C@H](C[C@H]3C[C@@H]3CCc3ccccc3)C(=O)N21` [ID-104, (3R,6S,9aS)-1-((E)-3-(benzo[d]thiazol-2-yl)acryloyl)-8-((R)-1-(4-hydroxybutyl)pyrrolidin-3-yl)-6-neopentyl-3-(((1R,2S)-2-phenethylcyclopropyl)methyl)tetrahydropyrazino[2,1-c][1,2,4]oxadiazine-4,7(3H,6H)-dione], the inhibition at 0.3125 µM (PANC-1, MTS, 6 days) came to 30.1%.
Take `CC(C)(C)C[C@H]1C(=O)N([C@@H]2CCN(CCCCO)C2)C[C@@H]2N(C(=O)/C=C/c3cnc4ccccc4n3)O[C@H](CCCCNC(=O)OCc3ccccc3)C(=O)N21` [ID-105, benzyl (4-((3R,6S,9aS)-8-((R)-1-(4-hydroxybutyl)pyrrolidin-3-yl)-6-neopentyl-4,7-dioxo-1-((E)-3-(quinoxalin-2-yl)acryloyl)octahydropyrazino[2,1-c][1,2,4]oxadiazin-3-yl)butyl)carbamate]: the inhibition at 30 µM (PANC-1, MTS, 6 days, 30 μM, read-out: Growth inhibition (%) 30 μM) was determined as 98.3%.
In the case of `CC(C)N1CCC(N2C[C@@H]3N(C(=O)/C=C/c4cnc5ccccc5n4)O[C@H](CC4CCCCC4)C(=O)N3[C@@H](CC(C)(C)C)C2=O)CC1` [ID-106, (3R,6S,9aS)-3-(cyclohexylmethyl)-8-(1-isopropylpiperidin-4-yl)-6-neopentyl-1-((E)-3-(quinoxalin-2-yl)acryloyl)tetrahydropyrazino[2,1-c][1,2,4]oxadiazine-4,7(3H,6H)-dione], for the setting “PANC-1, MTS, 6 days”, the inhibition at 0.3125 µM came out at 29.8% and the inhibition at 1 µM turned out to be 101%.
Regarding `CCC(CC)C[C@H]1ON(C(=O)/C=C/c2cnc3ccccc3n2)[C@H]2CN([C@@H]3CCN(CCCCO)C3)C(=O)[C@H](CC(C)(C)C)N2C1=O` [ID-107, (3R, 6S, 9aS)-3-(2-ethylbutyl)-8-((R)-1-(4-hydroxybutyl)pyrrolidin-3-yl)-6-neopentyl-1-((E)-3-(quinoxalin-2-yl)acryloyl)tetrahydropyrazino[2,1-c][1,2,4]oxadiazine-4,7(3H,6H)-dione], it took 200 nM to reach half-maximal inhibition (PANC-1, MTS method, cell survival 6 days after exposure, 4-parameter logistic fit) (IC50). Besides, where the note is “PANC-1, MTS, 6 days”, the inhibition at 0.3125 µM stood at 94.3% and the inhibition at 1 µM came to 98.5%.

What is called inhibition is the relative decrease from the control value, in per cent. For orientation: IC50 means the concentration that gives 50% inhibition.
